In article PMC8115619, “Generation of a chemical genetic model for JAK3” (Scientific Reports, 2021):

Tested on: IL-2 induced STAT5 phosphorylation in T cells from JAK3 Cys905Ser knockin mice
Experiment: IL-2 induced STAT5 phosphorylation in JAK3 Cys905Ser knockin T cells
Assay type: cell-based, mouse
Conditions: CD8 T cells, inhibitor 30 min, 10 ng/ml IL-2 30 min
Method: (A) Single cell suspensions were prepared from the spleens of wild type mice. […] Cells were then stimulated with 10 ng/ml IL-4 for 30 min and the levels of phosphorylated STAT6 determined by immunoblotting. (B) As (A) except cells were stimulated with 10 ng/ml IL-2 and the levels of phosphorylated STAT5 determined. (C) CD8 T cells were expanded from the lymph nodes of wild type and JAK3 Cys905Ser knockin mice. Cells were rested in the absence of IL-2 for 60 min then incubated with the indicated concentrations of PF-06651600 for a further 30 min before stimulation with 10 ng/ml of IL-2 for 30 min. The levels of phosphorylated STAT5 and total ERK1/2 were then determined.
Lymph Nodes were harvested from the mice and a single cell suspension in PBS made by passing the tissue through a […] strainer. The cells were counted and seeded at density of 10^6 cells/ml in RPMI supplemented with10% heat inactivated FBS (Labtech), 2 mM L-glutamine, 100 U/ml penicillin G, 100 μg/ml streptomycin, 0.25 μg/ml amphotericin and 50 μM β-mercaptoethanol and stimulated with 1 μg/ml anti-CD28 (cat:16-0281-82; clone:37.51 Thermo Fisher), 1 μg/ml anti CD3e (cat:16-0031-85, Clone:145-2C11 Thermo Fisher), 20 ng/ml of IL-2 and 1 ng/ml of IL-12. The cells were cultured for 36 h and then the cell suspension was diluted 5 times with RPMI media containing 20 ng/ml of IL-2. […]

With `C=CC(=O)N1C[C@H](Nc2ncnc3[nH]ccc23)CC[C@@H]1C` [PF-06651600, 1-((2S,5R)-5-((7H-Pyrrolo[2,3-d]pyrimidin-4-yl)amino)-2-methylpiperidin-1-yl)prop-2-en-1-one, reference compound] the “block of IL-2 induced STAT5 phosphorylation in T cells from JAK3 Cys905Ser knockin mice” value was “did not block”.
